Drawing on patent US20060116390A1, “Hepatitis c virus inhibitors” (priority 2003, published 2006), this text covers IC50 for 31 molecules.

The IC50 is the concentration at which inhibition is half-maximal.

Read-outs that look alike come from different tables or passages of the source.

This experiment concerns HCV proteins in Rep5.1 cells (replicon cell line). Put plainly: Inhibitory activity of HCV: cell-based ELISA in replicon cell line Rep5.1 (decrease of HCV proteins). Details: species or system hepatitis C virus. To be noted: Rep5.1 cells, 72 hours with drug. The method in brief: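 HCV protein loss was quantified by ELISA on methanol/acetone-fixed cells 72 h after drug addition, probing with selected HCV-positive human plasma, and IC50 was defined as 50% reduction relative to untreated wells. The cells were Rep5.1 replicon cells cultured in DMEM-10 with 500 μg/ml G418, plated at 5000 per well and dosed with serial dilutions after 4 h attachment.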
In general terms: In an ELISA, binding on a coated surface is turned into a signal by an enzyme label.

[1] abbreviates: Hepatitis C virus, 72 h, concentration at which 50% of HCV proteins was decreased, Table 2, read-out: IC50.
[2] abbreviates: Hepatitis C virus, 72 h, decrease of HCV proteins measured by HCV antibody, Table 1, read-out: Level (IC50 values classified).

As for `CC1=C(C(=O)OCn2nnc3ccccc32)CNC(=S)N1` [Compound 225, 6-methyl-2-thioxo-1,2,3,4-tetrahydro-pyrimidine-5-carboxylic acid benzotriazol-1-ylmethyl ester], the IC50 is, setting by setting: under setting [1], over 100000 nM; under setting [2], over 20000 nM. Take `CC1=C(C(=O)OCCc2ccc(Cl)cc2)CNC(=S)N1` [Compound 94, 6-methyl-2-thioxo-1,2,3,4-tetrahydro-pyrimidine-5-carboxylic acid 2-(4-chloro-phenyl)-ethyl ester]: the IC50 was under 400 nM under setting [1] and under 1000 nM under setting [2]. Consider `CC(=O)OCC1NC(=S)NC(C)=C1C(=O)OCCCCc1ccsc1` (stereo not shown) [26″, 4-acetoxymethyl-6-methyl-2-thioxo-1,2,3,4-tetrahydro-pyrimidine-5-carboxylic acid 4-thiophen-3-yl-butyl ester], for which the IC50 under setting [1] was 2000 nM and the IC50 under setting [2] fell in the range of 1000 to 10000 nM. For the molecule `CC1=C(C(=O)OCc2ccccc2C)CNC(=S)N1` [Compound 231, 6-methyl-2-thioxo-1,2,3,4-tetrahydro-pyrimidine-5-carboxylic acid 2-methyl-benzyl ester], the IC50 under setting [1] was found to be 700 nM and the IC50 under setting [2] is under 1000 nM.

For `CC1=C(C(=O)OCCc2ccc(F)cc2Cl)C(CF)NC(=S)N1` (stereo not shown) [86′, 4-fluoromethyl-6-methyl-2-thioxo-1,2,3,4-tetrahydro-pyrimidine-5-carboxylic acid 2-(2-chloro-4-fluoro-phenyl)-ethyl ester], the IC50 is, setting by setting: under setting [1], under 400 nM; under setting [2], under 1000 nM. Take `CC1=C(C(=O)OCC2CCCCC2)C(CF)NC(=S)N1` (stereo not shown) [51′, 4-fluoromethyl-6-methyl-2-thioxo-1,2,3,4-tetrahydro-pyrimidine-5-carboxylic acid cyclohexylmethyl ester]: the IC50 was 5400 nM under setting [1] and 1000 to 10000 nM under setting [2]. As for `CC1=C(C(=O)OCCCCCCCCc2ccccc2)CNC(=S)N1` [Compound 33, 6-methyl-2-thioxo-1,2,3,4-tetrahydro-pyrimidine-5-carboxylic acid 8-phenyl-octyl ester], the IC50 was under 500 nM under setting [1] and under 1000 nM under setting [2]. `COc1ccc(CCOC(=O)C2=C(C)NC(=S)NC2)cc1` [Compound 92, 6-methyl-2-thioxo-1,2,3,4-tetrahydro-pyrimidine-5-carboxylic acid 2-(4-methoxy-phenyl)-ethyl ester]: the IC50 reads like this: under setting [1], 1000 nM; under setting [2], under 1000 nM. For the molecule `CC1=C(C(=O)OCCc2cccc(C(F)(F)F)c2)C(CO)NC(=S)N1` (stereo not shown) [38″, 4-hydroxymethyl-6-methyl-2-thioxo-1,2,3,4-tetrahydro-pyrimidine-5-carboxylic acid 2-(3-trifluoromethyl-phenyl)-ethyl ester], the IC50 reads like this: under setting [1], under 400 nM; under setting [2], under 1000 nM. In the case of `CC1=C(C(=O)OCc2ccc(C)c([N+](=O)[O-])c2)CNC(=S)N1` [Compound 136, 6-methyl-2-thioxo-1,2,3,4-tetrahydro-pyrimidine-5-carboxylic acid 3-nitro-4-methyl-benzyl ester], the IC50 under setting [1] turned out to be 600 nM and the IC50 under setting [2] was under 1000 nM. As to `CC1=C(C(=O)OCc2ccccc2C(F)(F)F)C(CF)NC(=S)N1` (stereo not shown) [37′, 4-fluoromethyl-6-methyl-2-thioxo-1,2,3,4-tetrahydro-pyrimidine-5-carboxylic acid 2-trifluoromethyl-benzyl ester], the IC50 was 600 nM under setting [1] and under 1000 nM under setting [2]. With `CC1=C(C(=O)OCCc2cccc(OC(F)(F)F)c2)C(CO)NC(=S)N1` (stereo not shown) [75″, 4-hydroxymethyl-6-methyl-2-thioxo-1,2,3,4-tetrahydro-pyrimidine-5-carboxylic acid 2-(3-trifluoromethoxy-phenyl)-ethyl ester], the IC50 runs as follows: under setting [1], under 400 nM; under setting [2], under 1000 nM. For the molecule `CC1=C(C(=O)OCCc2ccccc2[N+](=O)[O-])C(CF)NC(=S)N1` (stereo not shown) [77′, 4-fluoromethyl-6-methyl-2-thioxo-1,2,3,4-tetrahydro-pyrimidine-5-carboxylic acid 2-(2-nitro-phenyl)-ethyl ester], the IC50 is, setting by setting: under setting [1], 39000 nM; under setting [2], over 20000 nM. With `CC1=C(C(=O)OCCc2cccc(C(F)(F)F)c2)C(COC(=O)C(C)N)NC(=S)N1` (stereo not shown) [73″, 4-(2-amino-propionyloxymethyl)-6-methyl-2-thioxo-1,2,3,4-tetrahydro-pyrimidine-5-carboxylic acid 2-(3-trifluoromethyl-phenyl)-ethyl ester], the IC50 is 400 nM under setting [1] and under 1000 nM under setting [2]. For `CCCCCCC(C)OC(=O)C1=C(C)NC(=S)NC1` (stereo not shown) [Compound 35, 6-methyl-2-thioxo-1,2,3,4-tetrahydro-pyrimidine-5-carboxylic acid 1-methyl-heptyl ester] the same measures were under 500 nM and under 1000 nM. For `CC1=C(C(=O)OC2CCN(Cc3ccccc3)CC2)CNC(=S)N1` [Compound 86, 6-methyl-2-thioxo-1,2,3,4-tetrahydro-pyrimidine-5-carboxylic acid 1-benzyl-piperidin-4-yl ester] the same measures were over 100000 nM and over 20000 nM. For `CC1=C(C(=O)OCCc2csc([N+](=O)[O-])c2)C(CF)NC(=S)N1` (stereo not shown) [28′, 4-fluoromethyl-6-methyl-2-thioxo-1,2,3,4-tetrahydro-pyrimidine-5-carboxylic acid 2-(5-nitro-thiophen-3-yl)-ethyl ester] the same measures were 72000 nM and over 20000 nM.

On to `CC1=C(C(=O)OCCc2cc3c(C)nn(C)c3s2)CNC(=S)N1` [Compound 267, 6-methyl-2-thioxo-1,2,3,4-tetrahydro-pyrimidine-5-carboxylic acid 2-(1,3-dimethyl-1H-thieno[2,3-c]pyrazol-5-yl)-ethyl ester], for which the IC50 runs as follows: under setting [1], 24000 nM; under setting [2], over 20000 nM. Take `COc1ccc(C2(COC(=O)C3=C(C)NC(=S)NC3CF)CCCC2)cc1` (stereo not shown) [64′, 4-fluoromethyl-6-methyl-2-thioxo-1,2,3,4-tetrahydro-pyrimidine-5-carboxylic acid 1-(4-methoxy-phenyl)-cyclopentylmethyl ester]: the IC50 reads like this: under setting [1], 3000 nM; under setting [2], 1000 to 10000 nM. Regarding `COc1ccc(Cl)cc1CCOC(=O)C1=C(C)NC(=S)NC1CO` (stereo not shown) [56″, 4-hydroxymethyl-6-methyl-2-thioxo-1,2,3,4-tetrahydro-pyrimidine-5-carboxylic acid 2-(5-chloro-2-methoxy-phenyl)-ethyl ester], the IC50 runs as follows: under setting [1], 600 nM; under setting [2], under 1000 nM. Consider `COc1ccc(OC)c(COC(=O)C2=C(C)NC(=S)NC2)c1` [Compound 174, 6-methyl-2-thioxo-1,2,3,4-tetrahydro-pyrimidine-5-carboxylic acid 2,5-dimethoxy-benzyl ester], for which the IC50 under setting [1] came to 7000 nM and the IC50 under setting [2] lay in the range of 1000 to 10000 nM. Turning to `CC1=C(C(=O)OC(C)(C)c2ccccc2)CNC(=S)N1` [Compound 27, 6-methyl-2-thioxo-1,2,3,4-tetrahydro-pyrimidine-5-carboxylic acid 1-methyl-1-phenyl-ethyl ester], the IC50 was 47000 nM under setting [1] and over 20000 nM under setting [2].

With `CC1=C(C(=O)OCCc2ccsc2)C(c2cnc[nH]2)NC(=S)N1` (stereo not shown) [50′, 4-(3H-imidazol-4-yl)-6-methyl-2-thioxo-1,2,3,4-tetrahydro-pyrimidine-5-carboxylic acid 2-thiophen-3-yl-ethyl ester], the IC50 is, setting by setting: under setting [1], over 100000 nM; under setting [2], over 20000 nM.

As for `CC1=C(C(=O)OCc2cc(Cl)cc(Cl)c2)C(CF)NC(=S)N1` (stereo not shown) [89′, 4-fluoromethyl-6-methyl-2-thioxo-1,2,3,4-tetrahydro-pyrimidine-5-carboxylic acid 3,5-dichloro-benzyl ester], the IC50 by setting is: under setting [1], 400 nM; under setting [2], under 1000 nM.

Regarding `CC#CCCOC(=O)C1=C(C)NC(=S)NC1` [Compound 160, 6-methyl-2-thioxo-1,2,3,4-tetrahydro-pyrimidine-5-carboxylic acid pent-3-inyl ester], where the note is “concentration at which 50% of HCV proteins was decreased, Table 2, read-out: IC50”, the IC50 stood at 12000 nM. `CCOc1cc(COC(=O)C2=C(C)NC(=S)NC2)cc(OCC)c1` [Compound 150, 6-methyl-2-thioxo-1,2,3,4-tetrahydro-pyrimidine-5-carboxylic acid 3,5-diethoxy-benzyl ester]: the IC50 was 1000 nM under setting [1] and under 1000 nM under setting [2]. `CC1=C(C(=O)OCCc2ccc(C)s2)CNC(=S)N1` [Compound 258, 6-methyl-2-thioxo-1,2,3,4-tetrahydro-pyrimidine-5-carboxylic acid 2-(5-methyl-thiophen-2-yl)-ethyl ester]: the IC50 was under 400 nM under setting [1] and under 1000 nM under setting [2]. Take `CC1=C(C(=O)OC2CCCCC2)CNC(=S)N1` [Compound 37, 6-methyl-2-thioxo-1,2,3,4-tetrahydro-pyrimidine-5-carboxylic acid cyclohexyl ester]: the IC50 is, setting by setting: under setting [1], 4000 nM; under setting [2], 1000 to 10000 nM. Consider `CC1=C(C(=O)OC2CCCC2)CNC(=S)N1` [Compound 67, 6-methyl-2-thioxo-1,2,3,4-tetrahydro-pyrimidine-5-carboxylic acid cyclopentyl ester], for which the IC50 was 6000 nM under setting [1] and 1000 to 10000 nM under setting [2]. Regarding `CC1=C(C(=O)OCc2ccc(-c3ccccc3)cc2)C(CO)NC(=S)N1` (stereo not shown) [28″, 4-hydroxymethyl-6-methyl-2-thioxo-1,2,3,4-tetrahydro-pyrimidine-5-carboxylic acid biphenyl-4-ylmethyl ester], the IC50 is 1000 nM under setting [1] and under 1000 nM under setting [2]. Take `CC1=C(C(=O)OCCc2cccc(Cl)c2)CNC(=S)N1` [Compound 117, 6-methyl-2-thioxo-1,2,3,4-tetrahydro-pyrimidine-5-carboxylic acid 2-(3-chloro-phenyl)-ethyl ester]: the IC50 by setting is: under setting [1], 400 nM; under setting [2], under 1000 nM.
